Test results taken from patent US6056958A, “Method of treatment of arterial and venous thromboembolic disorders” (Dupont Pharmaceuticals, priority 1997, dated 2000).
Non-standard residues stand in square brackets, D forms with d. Residues, ends and D or L forms follow the SMILES beside them. 3Amb = NCc1cccc(C(=O)O)c1

Experiments:
αv /β3 receptor = biological target: T1, αv /β3 receptor (Homo sapiens, UniProt P05106+P06756); assay: αv/β3-Biotinylated Vitronectin Binding Assay; details: for IC50: inhibition of vitronectin binding to purified αv/β3; for Relative Binding Affinity for αv /β3 Relative to GPIIb/IIIa: ratio of IC50 values (GPIIb/IIIa over αv/β3)
T1 construct: The αv /β3 receptor was isolated from human placental extracts prepared using octylglucoside; from tissue
Description: Compounds may be tested for their ability to block binding of vitronectin to the αv /β3 receptor and to block the binding of fibrinogen to GPIIb/IIIa receptor in the αv /β3 -Biotinylated Vitronectin Binding Assay and GPIIb/IIIa Receptor-Biotinylated Fibrinogen Binding Assay described below.
αv /β3 -Biotinylated Vitronectin Binding Assay
The αv /β3 receptor was isolated from human placental extracts prepared using octylglucoside. The extract was passed over an anti-αv /β3 monoclonal antibody (LM609) affinity column (prepared using LM609 and Affigel 10). The column was subsequently washed extensively at pH 7 and pH 4.5 followed by elution at pH 3. The resulting sample was concentrated by wheat germ agglutinin chromatography to provide a αv /β3 -containing sample which gave two bands on SDS-PAGE which were confirmed as αv /β3 by western blotting.
The affinity purified αv /β3 protein as described above was diluted at different levels and plated to 96 well plates (about 15 ng of αv /β3 protein per well). ELISA detection of αv /β3 -bound biotinylated vitronectin was performed as described below using fixed concentration of biotinylated vitronectin (approximately 80 nM/well). This αv /β3 receptor preparation contains the αv /β3 with no detectable levels of αv /β5 according to the gel and according to effects of blocking antibodies for the αv /β3 or αv /β5 in the ELISA.
A submaximal concentration of biotinylated vitronectin was selected based on concentration response curves with fixed αv /β3 receptor concentration and variable concentrations of biotinylated vitronectin.
The purified αv /β3 receptor is diluted with coating buffer (20 mM Tris HCl, 150 mM NaCl, 2.0 mM CaCl2, 1.0 mM MgCl2.6H2 O, 1.0 mM MnCl2.4H2 O) and coated (100 μL/well) on Costar (3590) high capacity 96-well plates overnight at 4° C. The coating solution is discarded and the plates washed once with blocking/binding buffer (B/B buffer: 50 mM Tris HCl, 100 mM NaCl, 2.0 mM CaCl2, 1.0 mM MgCl2.6H2 O, 1.0 mM MnCl2.4H2 O). The plate-immobilized αv /β3 receptor is then blocked (200 μl/well) with 3.5% BSA in B/B buffer for 2 hours at room temperature. After washing once with 1.0% BSA in B/B buffer, biotinylated vitronectin (100 μL) and either test compound (inhibitor) (11 μL) or B/B buffer w/1.0% BSA (11 μL) is added to each well. The plates are incubated 2 hours at room temperature. The plates are washed twice with B/B buffer and incubated 1 hour at room temperature with anti-biotin alkaline phosphatase (100 μL/well) in B/B buffer containing 1.0% BSA. The plates are washed twice with B/B buffer and alkaline phosphatase substrate (100 μL) is added. Color is developed at room temperature. Color development is stopped by addition of 2N NaOH (25 μL/well) and absorbance is read at 405 nm.
The inhibitory binding constant (Ki) of test agents 30 may be calculated under this assay system using Michaelis-Menten analysis. The IC50 is the concentration of test substance needed to block 50% of the vitronectin binding to the αv /β3 receptor. The IC50 for the inhibition of binding of vitronectin to the αv /β3 receptor was determined based on time averaged values for the inhibition of vitronectin binding. Thus, the inhibition of vitronectin binding for each concentration of test compound was measured every 30 seconds over a 2 hour period and the average value of inhibition of vitronectin binding over such 2 hour period was used for the determination of the IC50.

Platelet Aggregation [1] = assay: Platelet Aggregation Assay (in vitro, ADP-induced, platelet-rich plasma); assay type: cell-based, mongrel dogs or human
Method: Platelet Aggregation Assay
Venous blood was obtained from anesthetized mongrel dogs or from healthy human donors who were drug-free and aspirin-free for at least two weeks prior to blood collection. Blood was collected into citrated Vacutainer tubes. The blood was centrifuged for 15 minutes at 150× g (850 RPM in a Sorvall RT6000 Tabletop Centrifuge with H-1000 B rotor) at room temperature, and platelet-rich plasma (PRP) was removed. The remaining blood was centrifuged for 15 minutes at 1500× g ([…]) at room temperature, and platelet-poor plasma (PPP) was removed. Samples were assayed on an aggregometer (PAP-4 Platelet Aggregation Profiler), using PPP as the blank (100% transmittance). 200 μL of PRP (5×10^8 platelets/mL) were added to each micro test tube, and transmittance was set to 0%. 20 μl of ADP (10 μM) was added to each tube, and the aggregation profiles were plotted (% transmittance versus time). Test agent (20 μL) was added at different concentrations prior to the addition of the platelet agonist. Results are expressed as % inhibition of agonist-induced platelet aggregation.

Platelet Aggregation [2] = assay: In Vivo Platelet Aggregation Inhibition in Dog; details: IV

T1 sequence (P06756 31-889 limits assumed): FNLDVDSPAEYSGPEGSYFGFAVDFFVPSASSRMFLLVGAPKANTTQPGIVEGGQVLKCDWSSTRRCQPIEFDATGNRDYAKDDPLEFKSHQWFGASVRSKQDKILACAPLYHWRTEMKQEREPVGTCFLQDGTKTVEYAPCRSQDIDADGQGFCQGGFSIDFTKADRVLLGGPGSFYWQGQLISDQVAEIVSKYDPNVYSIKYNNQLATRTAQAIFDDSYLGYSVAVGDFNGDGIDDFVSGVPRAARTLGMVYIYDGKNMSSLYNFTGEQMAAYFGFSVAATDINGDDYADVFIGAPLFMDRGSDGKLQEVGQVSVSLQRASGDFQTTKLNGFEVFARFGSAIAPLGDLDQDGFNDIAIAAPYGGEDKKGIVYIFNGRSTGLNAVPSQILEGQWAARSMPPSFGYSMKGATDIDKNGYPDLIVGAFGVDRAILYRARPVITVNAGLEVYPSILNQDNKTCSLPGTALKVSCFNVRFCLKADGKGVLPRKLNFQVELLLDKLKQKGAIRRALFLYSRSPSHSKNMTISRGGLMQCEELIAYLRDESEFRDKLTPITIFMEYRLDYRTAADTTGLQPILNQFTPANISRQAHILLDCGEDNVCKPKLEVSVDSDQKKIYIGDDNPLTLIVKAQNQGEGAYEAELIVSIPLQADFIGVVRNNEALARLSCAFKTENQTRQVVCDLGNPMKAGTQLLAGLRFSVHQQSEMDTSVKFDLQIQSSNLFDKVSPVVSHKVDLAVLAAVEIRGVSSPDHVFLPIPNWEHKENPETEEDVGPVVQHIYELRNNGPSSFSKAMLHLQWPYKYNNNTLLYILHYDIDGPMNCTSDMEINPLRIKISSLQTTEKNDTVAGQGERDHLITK
T1 sequence (P06756 891-1048 partner limits assumed): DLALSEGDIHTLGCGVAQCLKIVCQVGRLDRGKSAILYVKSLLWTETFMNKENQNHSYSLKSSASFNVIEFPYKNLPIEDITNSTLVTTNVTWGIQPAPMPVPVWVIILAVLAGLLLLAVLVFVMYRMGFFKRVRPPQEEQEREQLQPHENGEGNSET
T1 sequence (P05106 27-788): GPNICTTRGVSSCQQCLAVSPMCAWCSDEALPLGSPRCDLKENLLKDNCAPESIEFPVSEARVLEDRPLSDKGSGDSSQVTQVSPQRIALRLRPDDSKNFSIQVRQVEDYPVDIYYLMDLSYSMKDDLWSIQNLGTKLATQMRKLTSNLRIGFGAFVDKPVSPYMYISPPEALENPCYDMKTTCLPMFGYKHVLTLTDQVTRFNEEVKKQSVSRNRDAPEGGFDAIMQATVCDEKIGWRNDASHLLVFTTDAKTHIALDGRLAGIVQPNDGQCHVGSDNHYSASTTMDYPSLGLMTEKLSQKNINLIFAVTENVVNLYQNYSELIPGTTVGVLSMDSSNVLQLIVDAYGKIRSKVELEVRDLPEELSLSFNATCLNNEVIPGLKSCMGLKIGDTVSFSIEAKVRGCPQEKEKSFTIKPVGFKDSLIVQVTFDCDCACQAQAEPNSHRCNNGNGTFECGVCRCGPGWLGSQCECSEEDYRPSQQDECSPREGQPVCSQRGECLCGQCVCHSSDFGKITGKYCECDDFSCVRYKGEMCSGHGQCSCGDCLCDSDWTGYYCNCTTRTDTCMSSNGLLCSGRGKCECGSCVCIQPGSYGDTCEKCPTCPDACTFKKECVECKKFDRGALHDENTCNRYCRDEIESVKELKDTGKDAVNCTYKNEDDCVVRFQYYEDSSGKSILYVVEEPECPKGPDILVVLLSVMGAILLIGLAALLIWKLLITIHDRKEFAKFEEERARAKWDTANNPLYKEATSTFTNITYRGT

Row | Compound | IC50 (αv /β3 receptor) [µM] | Relative Binding Affinity for αv /β3 Relative to GPIIb/IIIa (αv /β3 receptor) | IC50 (Platelet Aggregation [1]) [µM] | Platelet Aggregation Inhibition (%) (Platelet Aggregation [2]; 1 mg/kg) | Platelet Aggregation Inhibition (%) (Platelet Aggregation [2]; 3 mg/kg) | Platelet Aggregation Inhibition (%) (Platelet Aggregation [2]; 10 mg/kg)
1 | C[C@@H]1NC(=O)c2cccc(c2)CNC(=O)[C@H](CC(=O)O)NC(=O)CNC(=O)[C@H](CCCNC(=N)N)NC1=O [Compound A, cyclo-(Ala-Arg-Gly-Asp-Mamb)] (cyclo(RGD[3Amb]A)) | 0.0038 | 107 | 18 | 0-10% | 10-20% | 30-50%
2 | N=C(N)NCCC[C@@H]1NC(=O)[C@@H]2CCCN2C(=O)c2cccc(c2)CNC(=O)[C@H](CC(=O)O)NC(=O)CNC1=O [Compound B, cyclo-(Pro-Arg-Gly-Asp-Mamb)] (cyclo(RGD[3Amb]P)) | 0.0007 | 2171 | 44 | 0-10% | 0-10% | 10-20%
